Assay results from US12344618B2, “Heterotricyclic derivative compound and use of same” (HANMI PHARMACEUTICAL CO., LTD., priority 2019, dated 2025).
Where two headings read alike, the source gives them in different places.

Assays:
[1] = tested on: KARPAS-422 (EZH2 Y641N mutation); assay: Cell growth inhibition test, KARPAS-422; format: cell-based; conditions: KARPAS-422, culture time 7 days, read-out: Cell growth inhibitory activity (GI50, nM) KARPAS-422 (EZH2 Y641N mutation)
[2] = tested on: Pfeiffer (EZH2 A677G mutation); assay: Cell growth inhibition test, Pfeiffer; format: cell-based; conditions: Homo sapiens, read-out: Cell growth inhibitory activity (GI50, nM) Pfeiffer (EZH2 A677G mutation)
Protocol: (§1) Each type of the cultured cells was seeded in 6-well plates or 48-96 well plates, and subculture or medium replacement was performed every 3 to 4 days. Next, the cells were subcultured for a total of 7 to 14 days, and then seeded in 96-well plates. 3 to 5 days before the measurement of the effect, the cells were seeded in 96-well plates, and then the absorbance (Tz) on the day of seeding was measured. The absorbance after the reaction was measured by the plate reader device Synergy NeoAlpha (Biotek) using Cell-Titer-Glo Cell Viability Assay (Promega, G7573) according to the attached manual. Based on the absorbance (Tz) measured on the seeding day and the absorbance of each of the DMSO-treated group (C) and the sample-added group (Ti) measured on the day of effect determination, the percentage of cell proliferation inhibition was calculated according to the following Equation 1. [(Ti−Tz)/(C−Tz)]×100 for concentrations for which Ti≥Tz […] for concentrations for which Ti<Tz. [Equation 1]

SU-DHL-4 = assay: Cell growth inhibition test, SU-DHL-4; format: cell-based; conditions: Homo sapiens, read-out: Cell growth inhibitory activity (GI50, nM) SU-DHL-4
Protocol: (§2) In order to confirm the inhibitory effects of the synthetic compounds against the growth of blood cancer cell lines, evaluation was performed against KARPAS 422, RPMI 8226, KMS-11, JeKo-1, MV-4-11, Mino, Pfeiffer, SU-DHL-4, and RS4; 11 cell lines. A test for the Pfeiffer and SU-DHL-4 cell lines was performed by KYinno Co., Ltd., a test for the RS4; 11 cell line was performed by Shanghai Chempartner Co., Ltd., and a test for the Kasumi-1, MV-4-11, MM.1S, KMS-11, JeKo-1, Mino (ATCC), RPMI 8226 (KCLB), and KARPAS 422 (ECACC) cell lines was performed after purchase.
as §1, with “DMSO at a final concentration of 0.1% or less or a DMSO solution of each of the synthetic compounds was added to media to have the concentration and treatment time described in Table 5 below, and cells were cultured at 37° C. under 5% CO2. Each” for “Each”

RS4;11 = assay: Cell growth inhibition test, RS4;11; format: cell-based; conditions: Homo sapiens, read-out: Cell growth inhibitory activity (GI50, nM) RS4;11
Protocol: as §2
as §1, with “DMSO at a final concentration of 0.1% or less or a DMSO solution of each of the synthetic compounds was added to media to have the concentration and treatment time described in Table 5 below, and cells were cultured at 37° C. under 5% CO2. Each” for “Each”

MV4-11 = assay: Cell growth inhibition test, MV4-11; format: cell-based; conditions: Homo sapiens, 240 h; MV4-11, culture time 10 days; read-out: Cell growth inhibitory activity (GI50, nM) MV4-11
Protocol: as §2
as §1, with “DMSO at a final concentration of 0.1% or less or a DMSO solution of each of the synthetic compounds was added to media to have the concentration and treatment time described in Table 5 below, and cells were cultured at 37° C. under 5% CO2. Each” for “Each”

Kasumi-1 = assay: Cell growth inhibition test, Kasumi-1; format: cell-based; conditions: Homo sapiens, 240 h; Kasumi-1, culture time 10 days; read-out: Cell growth inhibitory activity (GI50, nM) Kasumi-1
Protocol: as §2
as §1, with “DMSO at a final concentration of 0.1% or less or a DMSO solution of each of the synthetic compounds was added to media to have the concentration and treatment time described in Table 5 below, and cells were cultured at 37° C. under 5% CO2. Each” for “Each”

MM.1S = assay: Cell growth inhibition test, MM.1S; format: cell-based; conditions: Homo sapiens, MM1.S, 264 h, culture time 11 days, read-out: Cell growth inhibitory activity (GI50, nM) MM.1S
Protocol: as §2
as §1, with “DMSO at a final concentration of 0.1% or less or a DMSO solution of each of the synthetic compounds was added to media to have the concentration and treatment time described in Table 5 below, and cells were cultured at 37° C. under 5% CO2. Each” for “Each”

RPMI8226 = assay: Cell growth inhibition test, RPMI8226; format: cell-based; conditions: Homo sapiens, RPMI-8226, 168 h; RPMI8226, culture time 7 days; read-out: Cell growth inhibitory activity (GI50, nM) RPMI8226
Protocol: as §2
as §1, with “DMSO at a final concentration of 0.1% or less or a DMSO solution of each of the synthetic compounds was added to media to have the concentration and treatment time described in Table 5 below, and cells were cultured at 37° C. under 5% CO2. Each” for “Each”

KMS-11 = assay: Cell growth inhibition test, KMS-11; format: cell-based; conditions: Homo sapiens, 240 h; KMS-11, culture time 10 days; read-out: Cell growth inhibitory activity (GI50, nM) KMS-11
Protocol: as §2
as §1, with “DMSO at a final concentration of 0.1% or less or a DMSO solution of each of the synthetic compounds was added to media to have the concentration and treatment time described in Table 5 below, and cells were cultured at 37° C. under 5% CO2. Each” for “Each”

Mino = assay: Cell growth inhibition test, Mino; format: cell-based; conditions: Homo sapiens, 336 h, culture time 14 days, read-out: Cell growth inhibitory activity (GI50, nM) Mino
Protocol: as §2
as §1, with “DMSO at a final concentration of 0.1% or less or a DMSO solution of each of the synthetic compounds was added to media to have the concentration and treatment time described in Table 5 below, and cells were cultured at 37° C. under 5% CO2. Each” for “Each”

JeKo-1 = assay: Cell growth inhibition test, JeKo-1; format: cell-based; conditions: Homo sapiens, 240 h; JeKo-1, culture time 10 days; read-out: Cell growth inhibitory activity (GI50, nM) JeKo-1
Protocol: as §2
as §1, with “DMSO at a final concentration of 0.1% or less or a DMSO solution of each of the synthetic compounds was added to media to have the concentration and treatment time described in Table 5 below, and cells were cultured at 37° C. under 5% CO2. Each” for “Each”

[3] = Metabolic stability in human liver microsomes; format: in vitro ADME; conditions: 5 μM compound, 1 mg/mL human liver microsomes, 37° C., NADPH regenerating system
Protocol: (§3) In order to confirm the metabolic stability of the synthetic compounds in the liver, 5 μM test compound and 1 mg/mL human, dog, rat or mouse liver microsomes were allowed to react with each other at 37° C. in the presence of the NADPH regenerating system for 1 hour. After 1 hour, the reaction was terminated and the supernatant obtained by centrifugation was analyzed by HPLC. With the peak value obtained as the analysis result, the residual amount (%) was calculated using the following equation through the peak value of the test compound after 1 hour of the reaction versus the peak value of the test compound at 0 min. Residual amount (%)=(peak value of test compound after 1 hour of reaction/peak value of test compound at 0 min)×100

[4] = Metabolic stability in dog liver microsomes; format: in vitro ADME; conditions: 5 μM compound, 1 mg/mL dog liver microsomes, 37° C., NADPH regenerating system
Protocol: as §3

[5] = Metabolic stability in rat liver microsomes; format: in vitro ADME; conditions: 5 μM compound, 1 mg/mL rat liver microsomes, 37° C., NADPH regenerating system
Protocol: as §3

[6] = Metabolic stability in mouse liver microsomes; format: in vitro ADME; conditions: 5 μM compound, 1 mg/mL mouse liver microsomes, 37° C., NADPH regenerating system
Protocol: as §3

[7] = Mouse pharmacokinetics, oral single dose; format: in vivo; conditions: male, ICR, mouse, plasma, po, 30 mg/kg, mice (ICR, male), oral single dose 30 mg/kg; for AUC: read-out: Area under oral curve (AUC); for half-life: read-out: Half life T1/2 (converted)
Protocol: Pharmacokinetics of the synthetic compounds as EZH2 inhibitors in mice (ICR, 8-week-old, male) were tested.
The oral administration group was maintained in a fasting state from the day before the test to 4 hours after administration of the test compound. On the day of administration of the test compound, the weight of each animal was measured and each synthetic compound was formulated using a selected solvent based on 30 mg/kg (10 mL/kg). Each test compound was administered orally in a single dose, a certain amount of the blood was taken at a predetermined time, plasma was isolated therefrom, and the concentration of each test compound in the plasma was analyzed using LC-MS/MS (Waters UPLC H-Class/Xevo TQ; Waters, USA). Pharmacokinetic coefficients were calculated by a linear-log trapezoidal summation formula using a non-compartment analysis of the Phoenix™ WinNonlin (Certara, USA) program through the plasma concentration curve over time.

EZH1 = target: T1, EZH1 (Homo sapiens, UniProt Q92800); assay: Inhibitory activity against EZH1 methyltransferase (radiometric scintillation proximity assay); format: biochemical; conditions: 2.3 nmol/L enzyme, 90 minutes, room temperature;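 further: Read-out is methylation of a substrate peptide, captured on streptavidin-coated SPA beads and counted by scintillation, in Tris-HCl buffer at pH 8.0 with 1% DMSO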
T1 construct: purchased Reaction Biology Corp. (contract assay)
T1 sequence (Q92800 whole entry): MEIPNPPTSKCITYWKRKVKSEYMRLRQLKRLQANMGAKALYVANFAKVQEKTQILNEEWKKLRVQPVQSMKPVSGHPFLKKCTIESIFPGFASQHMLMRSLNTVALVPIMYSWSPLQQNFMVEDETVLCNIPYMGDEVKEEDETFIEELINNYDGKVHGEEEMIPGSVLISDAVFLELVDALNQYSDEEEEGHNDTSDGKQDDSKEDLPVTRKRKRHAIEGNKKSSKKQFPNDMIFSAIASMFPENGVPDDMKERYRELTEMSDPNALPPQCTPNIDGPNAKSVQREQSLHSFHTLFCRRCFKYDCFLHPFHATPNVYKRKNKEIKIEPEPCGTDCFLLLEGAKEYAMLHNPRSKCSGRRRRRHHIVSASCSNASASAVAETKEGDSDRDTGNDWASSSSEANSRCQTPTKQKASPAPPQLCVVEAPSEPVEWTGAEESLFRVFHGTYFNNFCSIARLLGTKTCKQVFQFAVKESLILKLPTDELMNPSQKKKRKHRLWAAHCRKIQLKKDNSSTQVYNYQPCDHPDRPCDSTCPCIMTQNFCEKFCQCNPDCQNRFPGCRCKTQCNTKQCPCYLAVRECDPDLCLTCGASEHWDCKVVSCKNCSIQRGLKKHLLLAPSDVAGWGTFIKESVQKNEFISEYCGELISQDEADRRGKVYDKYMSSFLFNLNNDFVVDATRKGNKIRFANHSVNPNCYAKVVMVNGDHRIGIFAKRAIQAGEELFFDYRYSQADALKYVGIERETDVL
T1 sequence (O75530 whole entry partner): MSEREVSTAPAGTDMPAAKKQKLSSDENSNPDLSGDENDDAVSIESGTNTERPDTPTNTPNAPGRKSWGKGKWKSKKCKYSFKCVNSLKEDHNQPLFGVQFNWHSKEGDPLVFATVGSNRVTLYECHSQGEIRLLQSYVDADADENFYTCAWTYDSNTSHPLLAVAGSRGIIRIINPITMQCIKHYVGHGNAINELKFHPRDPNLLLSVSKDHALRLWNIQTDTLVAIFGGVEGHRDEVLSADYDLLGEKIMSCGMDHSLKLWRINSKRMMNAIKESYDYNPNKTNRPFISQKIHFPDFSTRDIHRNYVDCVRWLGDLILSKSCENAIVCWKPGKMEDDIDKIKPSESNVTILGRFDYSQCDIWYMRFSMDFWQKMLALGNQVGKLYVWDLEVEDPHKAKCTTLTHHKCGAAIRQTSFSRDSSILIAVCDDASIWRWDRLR
T1 sequence (Q15022 whole entry partner): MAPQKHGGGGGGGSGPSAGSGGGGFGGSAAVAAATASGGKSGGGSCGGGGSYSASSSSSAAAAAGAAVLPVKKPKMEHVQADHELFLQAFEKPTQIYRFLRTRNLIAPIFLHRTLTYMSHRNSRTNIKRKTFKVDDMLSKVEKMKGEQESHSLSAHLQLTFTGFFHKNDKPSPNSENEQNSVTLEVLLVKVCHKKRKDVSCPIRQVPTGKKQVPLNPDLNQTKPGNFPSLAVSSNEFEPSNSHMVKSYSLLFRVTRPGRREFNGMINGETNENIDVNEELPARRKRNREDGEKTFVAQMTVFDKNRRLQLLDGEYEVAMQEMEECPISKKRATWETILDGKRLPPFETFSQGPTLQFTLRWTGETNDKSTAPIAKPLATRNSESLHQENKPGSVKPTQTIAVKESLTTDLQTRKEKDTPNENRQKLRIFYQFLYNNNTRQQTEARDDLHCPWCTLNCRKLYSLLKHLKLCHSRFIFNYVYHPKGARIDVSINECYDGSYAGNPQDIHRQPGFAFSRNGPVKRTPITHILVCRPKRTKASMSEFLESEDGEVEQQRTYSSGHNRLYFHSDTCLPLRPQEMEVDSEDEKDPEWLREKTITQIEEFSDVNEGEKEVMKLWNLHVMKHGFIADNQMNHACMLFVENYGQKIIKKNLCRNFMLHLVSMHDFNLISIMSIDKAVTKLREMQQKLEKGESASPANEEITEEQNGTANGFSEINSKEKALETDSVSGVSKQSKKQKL
T1 sequence (Q09028 whole entry partner): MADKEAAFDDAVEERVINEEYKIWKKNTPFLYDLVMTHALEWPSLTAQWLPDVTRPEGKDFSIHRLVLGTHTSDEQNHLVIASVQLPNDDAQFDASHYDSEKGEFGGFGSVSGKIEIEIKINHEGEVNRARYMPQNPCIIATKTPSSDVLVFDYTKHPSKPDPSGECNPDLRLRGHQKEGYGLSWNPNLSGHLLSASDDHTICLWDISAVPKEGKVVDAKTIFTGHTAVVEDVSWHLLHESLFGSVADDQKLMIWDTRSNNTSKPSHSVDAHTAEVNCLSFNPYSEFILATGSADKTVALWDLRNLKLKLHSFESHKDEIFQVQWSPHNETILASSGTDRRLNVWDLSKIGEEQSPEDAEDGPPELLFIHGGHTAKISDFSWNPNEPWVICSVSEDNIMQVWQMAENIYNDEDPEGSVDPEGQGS
T1 sequence (Q6ZN18 whole entry partner): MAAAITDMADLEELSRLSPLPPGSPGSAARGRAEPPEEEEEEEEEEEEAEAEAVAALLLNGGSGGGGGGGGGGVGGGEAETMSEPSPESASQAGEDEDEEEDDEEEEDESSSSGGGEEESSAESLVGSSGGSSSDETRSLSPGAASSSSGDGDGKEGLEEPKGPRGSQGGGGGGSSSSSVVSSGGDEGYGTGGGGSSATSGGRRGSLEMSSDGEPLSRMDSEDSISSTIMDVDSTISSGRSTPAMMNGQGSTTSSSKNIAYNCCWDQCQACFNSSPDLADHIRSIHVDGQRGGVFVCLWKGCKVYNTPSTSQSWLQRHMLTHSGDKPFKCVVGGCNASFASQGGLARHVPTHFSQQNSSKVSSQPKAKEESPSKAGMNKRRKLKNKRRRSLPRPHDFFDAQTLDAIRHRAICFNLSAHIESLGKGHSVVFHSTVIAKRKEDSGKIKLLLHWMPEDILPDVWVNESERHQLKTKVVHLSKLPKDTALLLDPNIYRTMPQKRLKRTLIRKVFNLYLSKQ
Protocol: (§4) The inhibitory activities of the synthetic compounds against EZH1 or EZH2 methyltransferase were measured. The experiment was conducted by Reaction Biology Corp., and the activity of EZH1 or EZH2 was measured using a radiometric scintillation proximity assay. […] The reaction buffer consisted of 50 mmol/L Tris-HCl (pH 8.0), 50 mmol/L NaCl, 1 mmol/L EDTA, 1 mmoL/L DTT, 1 mmol/L PMSF, and 1% DMSO. Trichloroacetic acid was added to terminate the reaction, and PVT streptavidin-coated SPA beads were added to each reaction solution, followed by further reaction at room temperature for 1 hour again. The methylation value of the substrate peptide was measured using the TopCount NXT plate reader.

EZH2 = EZH2 (Homo sapiens, UniProt Q15910); assay: Inhibitory activity against EZH2 methyltransferase (radiometric scintillation proximity assay); conditions: Enzyme inhibitory activity (IC50, nM) EZH2, 2.3 nmol/L enzyme, 90 minutes, room temperature;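 further: Read-out is substrate peptide methylation, captured on streptavidin-coated SPA beads and counted by scintillation, with the reaction run in Tris-HCl buffer at pH 8.0 containing 1% DMSO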
Sequence of EZH2 (Q15910 whole entry): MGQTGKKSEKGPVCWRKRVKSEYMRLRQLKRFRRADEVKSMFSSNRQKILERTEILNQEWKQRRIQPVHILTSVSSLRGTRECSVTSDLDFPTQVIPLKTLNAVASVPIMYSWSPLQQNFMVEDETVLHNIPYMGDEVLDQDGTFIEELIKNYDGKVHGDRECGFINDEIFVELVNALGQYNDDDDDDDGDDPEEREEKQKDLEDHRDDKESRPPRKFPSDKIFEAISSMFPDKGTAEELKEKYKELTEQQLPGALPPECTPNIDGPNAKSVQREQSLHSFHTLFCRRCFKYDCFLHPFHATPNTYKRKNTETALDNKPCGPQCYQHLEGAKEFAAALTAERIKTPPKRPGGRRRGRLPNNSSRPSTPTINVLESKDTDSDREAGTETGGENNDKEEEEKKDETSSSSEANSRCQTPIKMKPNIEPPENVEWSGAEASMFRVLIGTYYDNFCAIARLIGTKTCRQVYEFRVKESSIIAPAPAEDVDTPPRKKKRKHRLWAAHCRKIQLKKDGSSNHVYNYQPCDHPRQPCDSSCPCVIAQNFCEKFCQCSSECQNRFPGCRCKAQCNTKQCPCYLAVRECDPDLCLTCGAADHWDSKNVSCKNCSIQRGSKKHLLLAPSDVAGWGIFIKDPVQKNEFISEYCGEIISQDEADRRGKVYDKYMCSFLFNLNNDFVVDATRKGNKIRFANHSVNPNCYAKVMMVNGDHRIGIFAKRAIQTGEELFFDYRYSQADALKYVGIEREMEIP
Sequence of EZH2 (O75530 whole entry partner): as the sequence (O75530 whole entry partner) above
Sequence of EZH2 (Q15022 whole entry partner): as the sequence (Q15022 whole entry partner) above
Sequence of EZH2 (Q09028 whole entry partner): as the sequence (Q09028 whole entry partner) above
Sequence of EZH2 (Q6ZN18 whole entry partner): as the sequence (Q6ZN18 whole entry partner) above
Protocol: as §4

[8] = Homo sapiens, KARPAS-422, 168 h

GI50 [1] | GI50 (SU-DHL-4) | GI50 (RS4;11) | GI50 (MV4-11) | GI50 (MM.1S) | GI50 (RPMI8226) | Residual amount (%) of test compound after 1 hour of reaction, Human [3] | Residual amount (%) of test compound after 1 hour of reaction, Dog [4] | Residual amount (%) of test compound after 1 hour of reaction, Rat [5] | Residual amount (%) of test compound after 1 hour of reaction, Mouse [6] | AUC [7] | half-life [7] | IC50 (EZH1) | GI50 [1, 8] | IC50 (EZH2) | Structure (SMILES) | GI50 [2] | GI50 (Kasumi-1) | GI50 (KMS-11) | GI50 (Mino) | GI50 (JeKo-1)
1.2 to 9.7 nM | 11 nM | 24 nM | 3.9 nM | 1.4 nM | 6.4 nM | 67% | 74% | 84% | 52% | 9960 ng·h/mL | 2.9 h | – | – | – | Cc1cc(C)c(CN2CCc3c(Br)c4c(c(C)c3C2=O)OC(C)([C@H]2CC[C@H](N(C)C)CC2)O4)c(=O)[nH]1 (single isomer, unassigned) [Compound 49, 9-bromo-6-((4,6-dimethyl-2-oxo-1,2-dihydropyridin-3-yl)methyl)-2-(trans-4-(dimethylamino)cyclohexyl)-2,4-dimethyl-7,8-dihydro-[1,3]dioxolo[4,5-g]isoquinolin-5(6H)-one] | 0.21 nM | 51 nM | 8.1 nM | 2 nM | 42 nM
– | – | – | – | – | – | 62% | – | – | 80% | 3650 ng·h/mL | – | 9.7 to 30 nM | 3.2 to 8.4 nM | 1.2 to 6.2 nM | Cc1cc(C)c(CN2CCc3c(C)c4c(c(C)c3C2=O)OC(C)([C@H]2CC[C@H](N(C)C)CC2)O4)c(=O)[nH]1 (stereo partly drawn) [Compound 39, 6-((4,6-dimethyl-2-oxo-1,2-dihydropyridin-3-yl)methyl)-2-(trans-4-(dimethylamino)cyclohexyl)-2,4,9-trimethyl-7,8-dihydro-[1,3]dioxolo[4,5-g]isoquinolin-5(6H)-one] | 0.76 to 0.99 nM | – | – | – | –
– | 281 nM | 932 nM | 220 nM | 204 nM | 315 nM | – | 14% | – | – | 4880 ng·h/mL | 0.6 h | – | – | – | CCN(c1cc(-c2ccc(CN3CCOCC3)cc2)cc(C(=O)NCc2c(C)cc(C)[nH]c2=O)c1C)C1CCOCC1 [Control A, N-((4,6-dimethyl-2-oxo-1,2-dihydropyridin-3-yl)methyl)-5-(ethyl(tetrahydro-2H-pyran-4-yl)amino)-4-methyl-4′-(morpholinomethyl)-[1,1′-biphenyl]-3-carboxamide] | – | > 1000 nM | 554 nM | 225 nM | 3580 nM
– | 21 nM | 62 nM | 6.1 nM | 2.3 nM | 7.8 nM | 65% | 83% | 81% | 50% | 3420 to 5000 ng·h/mL | 1 h | – | 1.3 to 15 nM | – | Cc1cc(C)c(CNC(=O)c2cc(Cl)c3c(c2C)O[C@@](C)([C@H]2CC[C@H](N(C)C)CC2)O3)c(=O)[nH]1 [Control B] | 0.57 nM | 324 nM | 25 nM | 2.5 nM | 71 nM
